Legend:
Assay in all cases: cells
CP66-MEL = format: functional, cell-based, Homo sapiens; settings: Homo sapiens, CP66-MEL;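 further: growth inhibition of CP66-MEL cells determined in a cell viability assay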
Description: SANGER: Inhibition of human CP66-MEL cell growth in a cell viability assay.

Ca9-22 = format: functional, cell-based, Homo sapiens; settings: Homo sapiens, Ca9-22;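 further: growth inhibition of Ca9-22 cells, read out with a cell viability assay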
Description: SANGER: Inhibition of human Ca9-22 cell growth in a cell viability assay.

Calu-6 = format: functional, cell-based, Homo sapiens; settings: Homo sapiens, Calu-6;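 further: growth of human Calu-6 cells, read out by a cell viability assay, IC50 marking inhibition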
Description: SANGER: Inhibition of human Calu-6 cell growth in a cell viability assay.

D-263MG = format: functional, cell-based, Homo sapiens; settings: Homo sapiens, D-263MG
Description: SANGER: Inhibition of human D-263MG cell growth in a cell viability assay.

EFM-19 = format: functional, cell-based, Homo sapiens; settings: Homo sapiens, EFM-19;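 further: growth inhibition of human EFM-19 cells, measured in a cell viability assay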
Description: SANGER: Inhibition of human EFM-19 cell growth in a cell viability assay.

EFO-21 = format: functional, cell-based, Homo sapiens; settings: Homo sapiens, EFO-21;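 further: growth inhibition of EFO-21 cells measured with a viability assay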
Description: SANGER: Inhibition of human EFO-21 cell growth in a cell viability assay.

ES7 = format: functional, cell-based, Homo sapiens; settings: Homo sapiens, ES7;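 further: growth inhibition of cultured human ES7 cells, read out as cell viability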
Description: SANGER: Inhibition of human ES7 cell growth in a cell viability assay.

GAMG = format: functional, cell-based, Homo sapiens; settings: Homo sapiens, GAMG;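 further: cell growth inhibition measured by a viability assay in the GAMG human cell line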
Description: SANGER: Inhibition of human GAMG cell growth in a cell viability assay.

GP5d = format: functional, cell-based, Homo sapiens; settings: Homo sapiens, GP5d;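 further: growth inhibition of human GP5d cells, read out with a cell viability assay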
Description: SANGER: Inhibition of human GP5d cell growth in a cell viability assay.

GT3TKB = format: functional, cell-based, Homo sapiens; settings: Homo sapiens, GT3TKB;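 further: growth inhibition of the cell line, read out with a cell viability assay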
Description: SANGER: Inhibition of human GT3TKB cell growth in a cell viability assay.

HCE-4 = format: functional, cell-based, Homo sapiens; settings: Homo sapiens, HCE-4;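 further: cell viability assay measuring inhibition of growth in the human HCE-4 cell line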
Description: SANGER: Inhibition of human HCE-4 cell growth in a cell viability assay.

HSC-2 = format: functional, cell-based, Homo sapiens; settings: Homo sapiens, HSC-2;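 further: growth inhibition of human HSC-2 cells, read out by a cell viability assay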
Description: SANGER: Inhibition of human HSC-2 cell growth in a cell viability assay.

HT-29 = format: functional, cell-based, Homo sapiens; settings: Homo sapiens, HT-29;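 further: growth inhibition of human HT-29 cells, read out by a cell viability assay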
Description: SANGER: Inhibition of human HT-29 cell growth in a cell viability assay.

HT-3 = format: functional, cell-based, Homo sapiens; settings: Homo sapiens, HT-3;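 further: growth inhibition measured with a cell viability readout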
Description: SANGER: Inhibition of human HT-3 cell growth in a cell viability assay.

HuP-T4 = format: functional, cell-based, Homo sapiens; settings: Homo sapiens, HuP-T4;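 further: cell viability assay measuring how much HuP-T4 cell growth is inhibited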
Description: SANGER: Inhibition of human HuP-T4 cell growth in a cell viability assay.

JVM-2 = format: functional, cell-based; settings: Homo sapiens;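 further: growth inhibition of JVM-2 cells determined by a cell viability assay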
Description: SANGER: Inhibition of human JVM-2 cell growth in a cell viability assay.

KM-H2 = format: functional, cell-based; settings: Homo sapiens;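 further: growth inhibition of KM-H2 cells, read out by a cell viability assay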
Description: SANGER: Inhibition of human KM-H2 cell growth in a cell viability assay.

KOSC-2 = format: functional, cell-based, Homo sapiens; settings: Homo sapiens, KOSC-2;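 further: growth inhibition of KOSC-2 cells, read out by a cell viability assay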
Description: SANGER: Inhibition of human KOSC-2 cell growth in a cell viability assay.

KYSE-520 cell line = format: functional, cell-based, Homo sapiens; settings: Homo sapiens, KYSE-520;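 further: growth inhibition of human KYSE-520 cells, read out with a viability assay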
Description: SANGER: Inhibition of human KYSE-520 cell growth in a cell viability assay.

LC-2-ad = format: functional, cell-based, Homo sapiens; settings: Homo sapiens, LC-2-ad;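 further: growth inhibition of human LC-2-ad cells, read out with a cell viability assay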
Description: SANGER: Inhibition of human LC-2-ad cell growth in a cell viability assay.

LCLC-97TM1 = format: functional, cell-based, Homo sapiens; settings: Homo sapiens, LCLC-97TM1;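 further: cell viability assay measuring growth inhibition of human LCLC-97TM1 cells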
Description: SANGER: Inhibition of human LCLC-97TM1 cell growth in a cell viability assay.

MC-IXC = format: functional, cell-based, Homo sapiens; settings: Homo sapiens, MC-IXC;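 further: growth inhibition of MC-IXC cells, read out with a cell viability assay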
Description: SANGER: Inhibition of human MC-IXC cell growth in a cell viability assay.

MDA-MB-361 = format: functional, cell-based, Homo sapiens; settings: Homo sapiens, MDA-MB-361
MDA-MB-453 = format: functional, cell-based, Homo sapiens; settings: Homo sapiens, MDA-MB-453
Description: SANGER: Inhibition of human MDA-MB-453 cell growth in a cell viability assay.

ME-180 = format: functional, cell-based; settings: Homo sapiens;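 further: cell viability assay measuring growth inhibition of ME-180 cells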
Description: SANGER: Inhibition of human ME-180 cell growth in a cell viability assay.

MFM-223 = format: functional, cell-based, Homo sapiens; settings: Homo sapiens, MFM-223
Description: SANGER: Inhibition of human MFM-223 cell growth in a cell viability assay.

MIA PaCa-2 = format: functional, cell-based, Homo sapiens; settings: Homo sapiens, MIA PaCa-2;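 further: growth inhibition of MIA PaCa-2 cells, read out with a cell viability assay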
Description: SANGER: Inhibition of human MIA-PaCa-2 cell growth in a cell viability assay.

NCI-H1650 = format: functional, cell-based, Homo sapiens; settings: Homo sapiens, NCI-H1650;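 further: growth inhibition of human NCI-H1650 cells measured by a cell viability assay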
Description: SANGER: Inhibition of human NCI-H1650 cell growth in a cell viability assay.

NCI-H446 = format: functional, cell-based; settings: Homo sapiens;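 further: growth inhibition of NCI-H446 cells determined by a cell viability assay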
Description: SANGER: Inhibition of human NCI-H446 cell growth in a cell viability assay.

NCI-H720 = format: functional, cell-based; settings: Homo sapiens;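 further: growth inhibition of human NCI-H720 cells determined by a cell viability assay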
Description: SANGER: Inhibition of human NCI-H720 cell growth in a cell viability assay.

NH-12 = format: functional, cell-based, Homo sapiens; settings: Homo sapiens, NH-12;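 further: growth inhibition of NH-12 cells, read out with a cell viability assay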
Description: SANGER: Inhibition of human NH-12 cell growth in a cell viability assay.

NMC-G1 = format: functional, cell-based, Homo sapiens; settings: Homo sapiens, NMC-G1;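 further: growth inhibition of the NMC-G1 cell line, measured with a cell viability read-out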
Description: SANGER: Inhibition of human NMC-G1 cell growth in a cell viability assay.

ONS-76 = format: functional, cell-based, Homo sapiens; settings: Homo sapiens, ONS-76;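 further: growth inhibition of human ONS-76 cells, read out with a cell viability assay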
Description: SANGER: Inhibition of human ONS-76 cell growth in a cell viability assay.

OS-RC-2 = format: functional, cell-based, Homo sapiens; settings: Homo sapiens, OS-RC-2;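 further: growth inhibition of human OS-RC-2 cells, measured by a cell viability assay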
Description: SANGER: Inhibition of human OS-RC-2 cell growth in a cell viability assay.

RPMI-2650 = format: functional, cell-based, Homo sapiens; settings: Homo sapiens, RPMI-2650
Description: SANGER: Inhibition of human RPMI-2650 cell growth in a cell viability assay.

SK-N-AS = format: functional, cell-based, Homo sapiens; settings: Homo sapiens, SK-N-AS;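 further: growth inhibition of human SK-N-AS cells, measured with a cell viability assay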
Description: SANGER: Inhibition of human SK-N-AS cell growth in a cell viability assay.

SK-N-DZ = format: functional, cell-based, Homo sapiens; settings: Homo sapiens, SK-N-DZ;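 further: growth inhibition of the cancer cell line, read out through a viability assay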
Description: SANGER: Inhibition of human SK-N-DZ cell growth in a cell viability assay.

SK-UT-1 = format: functional, cell-based, Homo sapiens; settings: Homo sapiens, SK-UT-1;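 further: growth inhibition of SK-UT-1 cells, measured by a cell viability assay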
Description: SANGER: Inhibition of human SK-UT-1 cell growth in a cell viability assay.

SW1573 = format: functional, cell-based, Homo sapiens; settings: Homo sapiens, SW1573;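 further: growth inhibition of SW1573 cells, read out with a cell viability assay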
Description: SANGER: Inhibition of human SW1573 cell growth in a cell viability assay.

SW1783 = format: functional, cell-based; settings: Homo sapiens;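 further: cell growth inhibition measured with a viability assay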
Description: SANGER: Inhibition of human SW1783 cell growth in a cell viability assay.

SW948 = format: functional, cell-based, Homo sapiens; settings: Homo sapiens, SW948;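 further: growth inhibition of SW948 cells, read out with a cell viability assay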
Description: SANGER: Inhibition of human SW948 cell growth in a cell viability assay.

TE-1 = format: functional, cell-based, Homo sapiens; settings: Homo sapiens, TE-1;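 further: growth inhibition of the human TE-1 cell line, read out with a cell viability assay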
Description: SANGER: Inhibition of human TE-1 cell growth in a cell viability assay.

A253 cell line = format: functional, cell-based, Homo sapiens; settings: Homo sapiens, A253;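 further: growth inhibition of A253 cells, read out with a cell viability assay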
Description: SANGER: Inhibition of human A253 cell growth in a cell viability assay.

A-375 = format: functional, cell-based, Homo sapiens; settings: Homo sapiens, A-375;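 further: growth inhibition of A375 cells, read out with a cell viability assay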
Description: SANGER: Inhibition of human A375 cell growth in a cell viability assay.

A388 = format: functional, cell-based, Homo sapiens; settings: Homo sapiens, A388;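 further: growth inhibition of human A388 cells, read out with a cell viability assay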
Description: SANGER: Inhibition of human A388 cell growth in a cell viability assay.

A-431 = format: functional, cell-based, Homo sapiens; settings: Homo sapiens, A-431;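 further: growth inhibition of A-431 cells, determined with a cell viability read-out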
Description: SANGER: Inhibition of human A431 cell growth in a cell viability assay.

U-118-MG = format: functional, cell-based, Homo sapiens; settings: Homo sapiens, U-118-MG
Description: SANGER: Inhibition of human U-118-MG cell growth in a cell viability assay.

U2OS = format: functional, cell-based, Homo sapiens, U-2-OS; settings: Homo sapiens, U2OS;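 further: growth inhibition of human U-2-OS cells, determined with a cell viability assay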
Description: SANGER: Inhibition of human U-2-OS cell growth in a cell viability assay.

CAMA-1 = format: functional, cell-based, Homo sapiens; settings: Homo sapiens, CAMA-1;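 further: growth inhibition of CAMA-1 cells, read out with a cell viability assay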
Description: SANGER: Inhibition of human CAMA-1 cell growth in a cell viability assay.

COLO-320-HSR = format: functional, cell-based; settings: Homo sapiens;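 further: growth inhibition of COLO-320-HSR cells, determined with a cell viability assay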
Description: SANGER: Inhibition of human COLO-320-HSR cell growth in a cell viability assay.

SMILES: C[C@]1(O)C[C@@H](c2nc(-c3ccc4ccc(-c5ccccc5)nc4c3)c3c(N)nccn32)C1 [LINSITINIB]
- IC50 (CP66-MEL): 2290 nM
- IC50 (Ca9-22): > 2560 nM
- IC50 (Calu-6): > 2560 nM
- IC50 (D-263MG): > 2560 nM
- IC50 (EFM-19): > 2560 nM
- IC50 (EFO-21): > 2560 nM
- IC50 (ES7): > 2560 nM
- IC50 (GAMG): > 2560 nM
- IC50 (GP5d): > 2560 nM
- IC50 (GT3TKB): > 2560 nM
- IC50 (HCE-4): > 2560 nM
- IC50 (HSC-2): > 2560 nM
- IC50 (HT-29): 242 nM
- IC50 (HT-3): > 2560 nM
- IC50 (HuP-T4): > 2560 nM
- IC50 (JVM-2): > 2560 nM
- IC50 (KM-H2): > 2560 nM
- IC50 (KOSC-2): > 2560 nM
- IC50 (KYSE-520 cell line): > 2560 nM
- IC50 (LC-2-ad): 1740 nM
- IC50 (LCLC-97TM1): 210 nM
- IC50 (MC-IXC): 1990 nM
- IC50 (MDA-MB-361): > 2560 nM
- IC50 (MDA-MB-453): > 2560 nM
- IC50 (ME-180): > 2560 nM
- IC50 (MFM-223): > 2560 nM
- IC50 (MIA PaCa-2): > 2560 nM
- IC50 (NCI-H1650): > 2560 nM
- IC50 (NCI-H446): > 2560 nM
- IC50 (NCI-H720): > 2560 nM
- IC50 (NH-12): 760 nM
- IC50 (NMC-G1): > 2560 nM
- IC50 (ONS-76): > 2560 nM
- IC50 (OS-RC-2): > 2560 nM
- IC50 (RPMI-2650): > 2560 nM
- IC50 (SK-N-AS): > 2560 nM
- IC50 (SK-N-DZ): 237 nM
- IC50 (SK-UT-1): > 2560 nM
- IC50 (SW1573): > 2560 nM
- IC50 (SW1783): > 2560 nM
- IC50 (SW948): > 2560 nM
- IC50 (TE-1): 1710 nM
- IC50 (A253 cell line): > 2560 nM
- IC50 (A-375): 476 nM
- IC50 (A388): > 2560 nM
- IC50 (A-431): > 2560 nM
- IC50 (U-118-MG): > 2560 nM
- IC50 (U2OS): > 2560 nM
- IC50 (CAMA-1): > 2560 nM
- IC50 (COLO-320-HSR): 414 nM

SMILES: C=CCc1cccc(/C=N/NC(=O)CN2CCN(Cc3ccccc3)CC2)c1O [PAC-1]
- IC50 (CP66-MEL): > 2560 nM
- IC50 (Ca9-22): > 2560 nM
- IC50 (Calu-6): > 2560 nM
- IC50 (D-263MG): > 2560 nM
- IC50 (EFM-19): 1950 nM
- IC50 (EFO-21): > 2560 nM
- IC50 (ES7): > 2560 nM
- IC50 (GAMG): > 2560 nM
- IC50 (GP5d): > 2560 nM
- IC50 (GT3TKB): > 2560 nM
- IC50 (HCE-4): > 2560 nM
- IC50 (HSC-2): > 2560 nM
- IC50 (HT-29): > 2560 nM
- IC50 (HT-3): > 2560 nM
- IC50 (HuP-T4): > 2560 nM
- IC50 (JVM-2): > 2560 nM
- IC50 (KM-H2): > 2560 nM
- IC50 (KOSC-2): > 2560 nM
- IC50 (KYSE-520 cell line): > 2560 nM
- IC50 (LC-2-ad): 898 nM
- IC50 (LCLC-97TM1): 1420 nM
- IC50 (MC-IXC): > 2560 nM
- IC50 (MDA-MB-361): > 2560 nM
- IC50 (MDA-MB-453): > 2560 nM
- IC50 (ME-180): > 2560 nM
- IC50 (MFM-223): > 2560 nM
- IC50 (MIA PaCa-2): > 2560 nM
- IC50 (NCI-H1650): > 2560 nM
- IC50 (NCI-H446): > 2560 nM
- IC50 (NCI-H720): > 2560 nM
- IC50 (NH-12): 987 nM
- IC50 (NMC-G1): > 2560 nM
- IC50 (ONS-76): > 2560 nM
- IC50 (OS-RC-2): > 2560 nM
- IC50 (RPMI-2650): > 2560 nM
- IC50 (SK-N-AS): > 2560 nM
- IC50 (SK-N-DZ): > 2560 nM
- IC50 (SK-UT-1): > 2560 nM
- IC50 (SW1573): > 2560 nM
- IC50 (SW1783): > 2560 nM
- IC50 (SW948): > 2560 nM
- IC50 (TE-1): > 2560 nM
- IC50 (A253 cell line): > 2560 nM
- IC50 (A-375): 869 nM
- IC50 (A388): > 2560 nM
- IC50 (A-431): > 2560 nM
- IC50 (U-118-MG): > 2560 nM
- IC50 (U2OS): > 2560 nM
- IC50 (CAMA-1): > 2560 nM
- IC50 (COLO-320-HSR): > 2560 nM

Reference: ChEMBL document CHEMBL1201861, “Genomics of Drug Sensitity in Cancer screening data, Wellcome Trust Sanger Institute”
